According to patent publication US12568967B2, “Compositions comprising pyridine carboxylate herbicides with synthetic auxin herbicides or auxin transport inhibitors” (priority 2018, dated 2026):

How the values were obtained:
[1] = system: Polygonum convolvulus (wild buckwheat, POLCO); test: Greenhouse postemergence trial POLCO; format: in vivo; details: POLCO; for visual injury, Obs: partner herbicide 560 g/ha alone; for % visual injury, Obs: applied alone
Method: (§1) Seeds of the desired test plant species were planted in a 90:10% v/v (volume/volume) mixture of PRO-MIX® BX (Premier Tech Horticulture, Quakertown, PA, USA) and PROFILE® GREENS GRADE™ (Profile Products LLC, Buffalo Grove, IL, USA) planting mixture, which typically has a pH of 5.2 to 6.2 and an organic matter content of at least 50 percent, in plastic pots with a surface area of 103.2 square centimeters (cm^2). […] The plants were grown for 7-36 days (d) in a greenhouse with an approximate 14-hour (h) photo-period which was maintained at about 23° C. during the day and 22° C. during the night. Nutrients and water were added on a regular basis and supplemental lighting was provided with overhead metal halide 1000-Watt lamps as necessary. The plants were employed for testing when they reached the second or third true leaf stage.
(§2) Emulsifiable concentrates of each of each pyridine carboxylate herbicide (Compound A or Compound B) were prepared at 100 grams acid equivalent per liter (g ae/L). The emulsifiable concentrates also included a safener, cloquintocet-mexyl, at 120 grams active ingredient per liter (g ai/L), unless otherwise noted below. An aliquot of each emulsifiable concentrate was placed in a 25 mL glass vial and diluted with an aqueous mixture of 1.25% (v/v) ACTIROB® B esterified rapeseed oil (Bayer Crop Science, Research Triangle Park, NC, USA) or MSO® Concentrate with LECI-TECH® methylated soybean oil (Loveland Products, Loveland, CO, USA) to obtain concentrated stock solutions at the highest application rate for each herbicide, based upon a 12 milliliter (mL) application volume at a rate of 187 liters per hectare (L/ha). The concentrated stock solutions were further diluted with an aqueous mixture of 1.25% v/v ACTIROB® B or MSO® Concentrate with LECI-TECH® to obtain stock solutions at reduced application rates for each herbicide. Spray solutions of the herbicide combinations (Compound A or Compound B plus synthetic auxin herbicide or auxin transport inhibitor) were prepared by adding weighed amounts or aliquots of the synthetic auxin herbicide or auxin transport inhibitor to the stock solutions of Compound A or Compound B to form 12-mL spray solutions in two-way combinations.
(§3) The spray solutions were applied to the plant material with an overhead Mandel track sprayer equipped with 8002E nozzles calibrated to deliver 187 L/ha over an application area of 0.503 square meters (m^2) at a spray height of 18 inches (43 centimeters (cm)) above the average plant canopy. Control plants were sprayed in the same manner with the solvent blank. All pyridine carboxylate herbicide (component a) application rates are given as “g ae/ha” and all synthetic auxin herbicide or auxin transport inhibitor (component b) application rates are given as “g ai/ha.”
(§4) The treated plants and control plants were placed in a greenhouse as described above and watered by sub-irrigation to prevent wash-off of the test compounds. After 20-22 d, the condition of the test plants as compared with that of the control plants was determined visually and scored on a scale of 0 to 100 percent where 0 corresponds to no injury and 100 corresponds to complete kill.

[2] = system: Salsola kali (Russian thistle, SASKR); test: Greenhouse postemergence trial SASKR; format: in vivo; details: SASKR; for visual injury, Obs: partner herbicide 560 g/ha alone; for % visual injury, Obs: applied alone;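 on all read-outs here: greenhouse plants sprayed at second or third true leaf stage, injury rated by eye after 20-22 d against solvent-blank controls, 0 meaning no injury, 100 complete kill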
Method: (§5) The plants were grown for 7-36 days (d) in a greenhouse with an approximate 14-hour (h) photo-period which was maintained at about 23° C. during the day and 22° C. during the night. Nutrients and water were added on a regular basis and supplemental lighting was provided with overhead metal halide 1000-Watt lamps as necessary. The plants were employed for testing when they reached the second or third true leaf stage.
(§6) The emulsifiable concentrates also included a safener, cloquintocet-mexyl, at 120 grams active ingredient per liter (g ai/L), unless otherwise noted below.
(§7) Control plants were sprayed in the same manner with the solvent blank. All pyridine carboxylate herbicide (component a) application rates are given as “g ae/ha” and all synthetic auxin herbicide or auxin transport inhibitor (component b) application rates are given as “g ai/ha.”
as §4

[3] = system: Matricaria discoidea (pineapple weed, MATMT); test: Greenhouse postemergence trial MATMT; format: in vivo; details: for visual injury, Obs: partner herbicide 560 g/ha alone
[4] = system: Anthemis arvensis (field chamomile, ANTAR); test: Greenhouse postemergence trial ANTAR; format: in vivo; details: ANTAR; for visual injury, Obs: partner herbicide 560 g/ha alone
Method: as §1, §2, §3, §4

[5] = system: Capsella bursa-pastoris (shepherd's purse, CAPBP); test: Greenhouse postemergence trial CAPBP; format: in vivo; details: CAPBP; for visual injury, Obs: partner herbicide 560 g/ha alone
[6] = system: Amaranthus retroflexus (pigweed, AMARE); test: Greenhouse postemergence trial AMARE; format: in vivo; details: for % visual injury, Obs: AMARE, applied alone;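 on all read-outs here: Greenhouse-grown plants sprayed at second to third true leaf stage, injury rated by eye after 20-22 d versus solvent-blank sprayed controls, 0 = no injury, 100 = complete kill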
Method: as §5, §6, §7, §4

[7] = system: Kochia scoparia (kochia, KCHSC); test: Greenhouse postemergence trial KCHSC; format: in vivo; details: KCHSC; for visual injury, Obs: partner herbicide 560 g/ha alone; for % visual injury, Obs: applied alone
Method: as §1, §2, §3, §4

[8] = system: Cirsium arvense (Canadian thistle, CIRAR); test: Greenhouse postemergence trial CIRAR; format: in vivo; details: for visual injury, Obs: partner herbicide 560 g/ha alone; for % visual injury, Obs: applied alone
[9] = system: Lamium purpureum (purple deadnettle, LAMPU); test: Greenhouse postemergence trial LAMPU; details: for visual injury, Obs: partner herbicide 560 g/ha alone
Method: as §5, §6, §7, §4

[10] = system: Viola tricolor (wild pansy, VIOTR); test: Greenhouse postemergence trial VIOTR; details: for visual injury, Obs: partner herbicide 560 g/ha alone;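 on all read-outs here: greenhouse plants sprayed at second to third true leaf stage, injury rated visually after 20-22 d against solvent-blank sprayed controls, 0 meaning no injury and 100 complete kill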
Method: as §1, §2, §3, §4

[11] = system: Papaver rhoeas (corn poppy, PAPRH); test: Greenhouse postemergence trial PAPRH; format: in vivo; details: PAPRH; for visual injury, Obs: partner herbicide 560 g/ha alone
Method: as §1, §2, §3, §4

[12] = system: Sinapis arvensis (wild mustard, SINAR); test: Greenhouse postemergence trial SINAR; format: in vivo; details: SINAR; for visual injury, Obs: partner herbicide 560 g/ha alone; for % visual injury, Obs: applied alone
[13] = system: Stellaria media (chickweed, STEME); test: Greenhouse postemergence trial STEME; format: in vivo; details: STEME; for visual injury, Obs: partner herbicide 560 g/ha alone
Method: as §1, §2, §3, §4

[14] = system: Matricaria inodora (false chamomile, MATIN); test: Greenhouse postemergence trial MATIN; format: in vivo; details: MATIN; for visual injury, Obs: partner herbicide 560 g/ha alone
[15] = system: Veronica persica (bird's-eye speedwell, VERPE); test: Greenhouse postemergence trial VERPE; format: in vivo; details: for visual injury, Obs: partner herbicide 560 g/ha alone
[16] = system: Matricaria chamomilla (wild chamomile, MATCH); test: Greenhouse postemergence trial MATCH; format: in vivo; details: MATCH; for % visual injury, Obs: applied alone; for visual injury, Obs: partner herbicide 560 g/ha alone;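 on all read-outs here: greenhouse plants sprayed at second to third true leaf stage, injury rated by eye 20-22 d later versus solvent-blank controls on 0–100 scale, 0 no injury, 100 complete kill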
[17] = system: Viola arvensis (field violet, VIOAR); test: Greenhouse postemergence trial VIOAR; format: in vivo; details: VIOAR; for visual injury, Obs: partner herbicide 560 g/ha alone
Method: as §1, §2, §3, §4

[18] = system: Brassica napus (winter rape, BRSNW); test: Greenhouse postemergence trial BRSNW; format: in vivo; details: for visual injury, Obs: partner herbicide 560 g/ha alone
[19] = system: Chenopodium album L. (common lambsquarters, CHEAL); test: Greenhouse postemergence trial CHEAL; format: in vivo;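 further: greenhouse plants sprayed at second to third true leaf stage, injury rated by eye after 20-22 d versus solvent-blank sprayed controls, 0 = no injury, 100 = complete kill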
[20] = system: Cyanus segetum (cornflower, CENCY); test: Greenhouse postemergence trial CENCY; format: in vivo; details: CENCY; for visual injury, Obs: partner herbicide 560 g/ha alone
Method: as §1, §2, §3, §4

[21] = system: Veronica hederifolia (ivyleaf speedwell, VERHE); test: Greenhouse postemergence trial VERHE; format: in vivo; details: VERHE; for visual injury, Obs: partner herbicide 560 g/ha alone
[22] = system: Papaver rhoeas (corn poppy), herbicide-resistant (PAPRH-R); test: Greenhouse postemergence trial PAPRH-R; format: in vivo; details: for visual injury, Obs: partner herbicide 560 g/ha alone
[23] = system: Triticum aestivum (spring wheat, TRZAS); format: in vivo
[24] = system: Hordeum vulgare (spring barley, HORVS); format: in vivo
Method: as §1, §2, §3, §4

[25] = system: Triticum aestivum (winter wheat, TRZAW); test: Greenhouse postemergence crop phytotoxicity TRZAW; format: in vivo; details: TRZAW; partner herbicide 560 g/ha alone
[26] = system: Hordeum vulgare (winter barley, HORVW); test: Greenhouse postemergence crop phytotoxicity HORVW; format: in vivo; details: HORVW; partner herbicide 560 g/ha alone
[27] = c1-2 Compound A 7.5/10, c3 Dicamba 140, c4-5 A 7.5/10 + Dicamba 140 g/ha

COc1c(Cl)ccc(Cl)c1C(=O)O [Dicamba, dicamba, reference compound]
visual injury, Obs [1]: 100% | visual injury, Obs [2]: 65% | visual injury, Obs ([3]; MATMT): 25% | visual injury, Obs [4]: 100% | visual injury, Obs [5]: 60% | % visual injury, Obs ([6]; 140 g/ha): 60% | % visual injury [6, 27]: 50% | visual injury, Obs [7]: 80% | visual injury, Obs ([8]; CIRAR): 70% | visual injury, Obs ([9]; LAMPU): 20% | visual injury, Obs ([10]; VIOTR): 20% | visual injury, Obs [11]: 30% | visual injury, Obs [12]: 85% | visual injury, Obs [13]: 75% | visual injury, Obs [14]: 70% | visual injury, Obs ([15]; VERPE): 60% | % visual injury, Obs ([16]; 140 g/ha): 3% | visual injury, Obs [16]: 35% | visual injury, Obs [17]: 30% | visual injury, Obs ([18]; BRSNW): 70% | plant injury at 140 g/ha ([18]; Brassica napus, post-emergence, BRSNW, applied alone, 140 g/ha, read-out: % visual injury, Obs): 23% | % visual injury [19, 27]: 48% | visual injury, Obs [20]: 100% | visual injury, Obs [21]: 75% | visual injury, Obs ([22]; PAPRH-R): 30%

CC(Oc1ccc(Cl)cc1Cl)C(=O)O (stereo not shown) [Dichlorprop]
% visual injury, Obs ([1]; 560 g/ha): 95% | % visual injury, Obs ([2]; 560 g/ha): 70% | % visual injury, Obs ([3]; MATMT, applied alone, 560 g/ha): 10% | % visual injury, Obs ([4]; applied alone, 560 g/ha): 95% | % visual injury, Obs ([5]; applied alone, 560 g/ha): 70% | % visual injury, Obs ([7]; 560 g/ha): 75% | % visual injury, Obs ([8]; CIRAR, 560 g/ha): 75% | % visual injury, Obs ([9]; LAMPU, applied alone, 560 g/ha): 30% | % visual injury, Obs ([10]; VIOTR, applied alone, 560 g/ha): 85% | % visual injury, Obs ([11]; applied alone, 560 g/ha): 65% | % visual injury, Obs ([12]; 560 g/ha): 100% | % visual injury, Obs ([13]; applied alone, 560 g/ha): 30% | % visual injury, Obs ([14]; applied alone, 560 g/ha): 60% | % visual injury, Obs ([15]; VERPE, applied alone, 560 g/ha): 30% | % visual injury, Obs ([16]; 560 g/ha): 50% | % visual injury, Obs ([17]; applied alone, 560 g/ha): 25% | plant injury at 560 g/ha ([18]; Brassica napus, post-emergence, BRSNW, applied alone, 560 g/ha, read-out: % visual injury, Obs): 75% | % visual injury, Obs ([20]; applied alone, 560 g/ha): 100% | % visual injury, Obs ([21]; applied alone, 560 g/ha): 60% | % visual injury, Obs ([22]; PAPRH-R, applied alone, 560 g/ha): 30%

Nc1c(Cl)c(F)nc(OCC(=O)O)c1Cl [Fluroxypyr]
pest or weed control ([1]; Fallopia convolvulus, post-emergence, Fluroxypyr 200 g/ha, read-out: % visual injury Obs): 50% | pest or weed control ([2]; Salsola kali, post-emergence, Fluroxypyr 200 g/ha, read-out: % visual injury Obs): 60% | MATMT % visual injury Obs ([3]; Fluroxypyr 70 g/ha (Table 38)): 10% | MATMT % visual injury Obs ([3]; Fluroxypyr 100 g/ha (Table 38)): 10% | pest or weed control ([3]; Matricaria discoidea, post-emergence, MATMT, Fluroxypyr 200 g/ha, read-out: % visual injury Obs): 0% | pest or weed control ([4]; Anthemis arvensis, post-emergence, Fluroxypyr 200 g/ha, read-out: % visual injury Obs): 60% | pest or weed control ([5]; Capsella bursa-pastoris, post-emergence, Fluroxypyr 200 g/ha, read-out: % visual injury Obs): 10% | pest or weed control ([7]; Bassia scoparia, post-emergence, Fluroxypyr 200 g/ha, read-out: % visual injury Obs): 70% | pest or weed control ([8]; Cirsium arvense, post-emergence, CIRAR, Fluroxypyr 200 g/ha, read-out: % visual injury Obs): 10% | pest or weed control at 200 g/ha ([9]; Lamium purpureum, post-emergence, read-out: % visual injury Obs): 65% | pest or weed control at 200 g/ha ([10]; Viola tricolor, post-emergence, read-out: % visual injury Obs): 65% | pest or weed control ([11]; Papaver rhoeas, post-emergence, Fluroxypyr 200 g/ha, read-out: % visual injury Obs): 0% | pest or weed control ([12]; Mutarda arvensis, post-emergence, Fluroxypyr 200 g/ha, read-out: % visual injury Obs): 90% | pest or weed control ([13]; Stellaria media, post-emergence, Fluroxypyr 200 g/ha, read-out: % visual injury Obs): 95% | pest or weed control ([14]; Tripleurospermum inodorum, post-emergence, Fluroxypyr 200 g/ha, read-out: % visual injury Obs): 65% | pest or weed control ([15]; Veronica persica, post-emergence, VERVE, Fluroxypyr 200 g/ha, read-out: % visual injury Obs): 60% | pest or weed control ([16]; Matricaria chamomilla, post-emergence, Fluroxypyr 200 g/ha, read-out: % visual injury Obs): 10% | pest or weed control ([17]; Viola arvensis, post-emergence, Fluroxypyr 200 g/ha, read-out: % visual injury Obs): 10% | plant injury ([18]; Brassica napus, post-emergence, BRSNW, Fluroxypyr 200 g/ha, read-out: % visual injury Obs): 30% | pest or weed control ([20]; Centaurea cyanus, post-emergence, Fluroxypyr 200 g/ha, read-out: % visual injury Obs): 100% | pest or weed control ([21]; Veronica hederifolia, post-emergence, Fluroxypyr 200 g/ha, read-out: % visual injury Obs): 10% | PAPRH-R % visual injury Obs ([22]; Fluroxypyr 70 g/ha (Table 38)): 25% | PAPRH-R % visual injury Obs ([22]; Fluroxypyr 100 g/ha (Table 38)): 25% | pest or weed control ([22]; Papaver rhoeas, post-emergence, PAPRH-R, Fluroxypyr 200 g/ha, read-out: % visual injury Obs): 10%

COC(=O)c1nc(-c2ccc(Cl)c(OC)c2F)cc(N)c1Cl [Halatvcifen-methyl]
% visual injury, Obs ([1]; 3 g/ha): 20% | % visual injury, Obs ([2]; 3 g/ha): 73% | % visual injury, Obs ([6]; 3 g/ha): 68% | % visual injury, Obs ([7]; 3 g/ha): 40% | % visual injury, Obs ([8]; CIRAR, 3 g/ha): 10% | % visual injury, Obs ([12]; 3 g/ha): 40% | % visual injury, Obs ([16]; 3 g/ha): 5% | % visual injury, Obs ([23]; TRZAS, applied alone, 3 g/ha): 0% | % visual injury, Obs ([24]; HORVS, applied alone, 3 g/ha): 0% | % visual injury, Obs ([18]; BRSNW, applied alone, 3 g/ha): 15% | % visual injury, Obs ([19]; CHEAL, applied alone, 3 g/ha): 83%

Cc1cc(Cl)ccc1OCC(=O)O [MCPA-DMA, MCPA-dimethylammonium, reference compound]
% visual injury ([6]; in vivo): 63% | CIRAR % visual injury Obs ([8]; in vivo): 60% | % visual injury (crop phytotoxicity) ([23]; Triticum aestivum (spring wheat, TRZAS), in vivo): 0% | TRZAS % visual injury Obs ([23]; in vivo): 0% | % visual injury (crop phytotoxicity) ([24]; Hordeum vulgare (spring barley, HORVS), in vivo): 0% | HORVS % visual injury Obs ([24]; in vivo): 0% | BRSNW % visual injury Obs ([18]; MCPA-DMA 400 g/ha (Table 37)): 83% | % visual injury ([19]; in vivo): 75%

Cc1cc(Cl)ccc1OCC(=O)O [MCPA]
visual injury, Obs [1]: 30% | visual injury, Obs [25]: 0% | visual injury, Obs [2]: 30% | visual injury, Obs ([3]; MATMT): 5% | visual injury, Obs [4]: 60% | visual injury, Obs [5]: 60% | visual injury, Obs [7]: 30% | visual injury, Obs ([8]; CIRAR): 65% | visual injury, Obs ([9]; LAMPU): 10% | visual injury, Obs ([10]; VIOTR): 60% | visual injury, Obs [11]: 95% | visual injury, Obs [12]: 100% | visual injury, Obs [13]: 50% | visual injury, Obs [14]: 50% | visual injury, Obs ([15]; VERPE): 60% | visual injury, Obs [16]: 30% | visual injury, Obs ([23]; TRZAS, partner herbicide 560 g/ha alone): 0% | visual injury, Obs ([24]; HORVS, partner herbicide 560 g/ha alone): 0% | visual injury, Obs [17]: 20% | visual injury, Obs ([18]; BRSNW): 90% | visual injury, Obs [26]: 0% | visual injury, Obs [20]: 95% | visual injury, Obs [21]: 65% | visual injury, Obs ([22]; PAPRH-R): 60%
